Data from patent US20250311722A1, “IMPROVED BIOCIDE” (Purgos ApS, priority 2022, published 2025).
Several values for one entry are separate records, joined by “and”; a condition that tells them apart may be missing. Identical values can stand only once.

What was measured:
Type in all cases: cell-based
bacteria = experiment: NBDA in different PVB dispersions at 32° C., ATP analysis (LuminUltra); set-up: bacteria count 6 mo after adding NBDA / bacteria count 9 mo after adding NBDA / bacteria count 1 d after adding NBDA / bacteria count 1 wk after adding NBDA / bacteria count 1 mo after adding NBDA / bacteria count 3 mo after adding NBDA / bacteria count after 4 mo after addition of NBDA / bacteria count after 6 mo after addition of NBDA: unit not given here; settings: 0.5% NBDA; for bacteria count after 4 mo after addition of NBDA / bacteria count after 4 wk after addition of NBDA / bacteria count after 6 mo after addition of NBDA / bacteria count after 8 wk after addition of NBDA / bacteria count after 9 mo after addition of NBDA / bacteria count after 12 mo after addition of NBDA: long term
Experimental: The amines selected from stock samples was made from factory prepared stock and sealed solutions delivered in technical quality (95-99.9%). […] Tertiary amine, water and PVB-dispersion was mechanically stirred in IKA vertical fixed blade stirrer for sampling in 2-5 minutes. Conditions was industrial clean, meaning no special precautions was taken to prevent contamination, except normal cleanliness and between operations dishwashing procedures. Working temperatures was 20-25 degre Celsius, and all incubations was made in thermostatic 32-degree Celsius incubator ovens for bottled flasks and open petri dishes. […] The protocol is provided by LuminUltra Technologies. Basically all tested dispersions are manufactured in same way, with only differences in additives, and the variations of origin/source of the waste material (See Example 1). However the specification of the SharkDispersions-all have same basic composition since the stability of the dispersion forces this. The in situ contamination of the production batches may also vary in handling and different storage methods in flasks, IBC's and tanks. In all production the dispersion before treated with tertiary amine is pasteurized due to the general level of production temperatures +90 degrees for several minutes. The biocidal effectivity of NBDA in different PVB dispersions was measured as explained above.

[1] = system: Pseudomonas aeruginosa, ATCC 15442; experiment: EN 1276 quantitative suspension test, bactericidal activity
Experimental: (§1) The test was carried out according to EN 1276, 2019: Chemical disinfectants and antiseptics-Quantitative suspension test for the evaluation of bactericidal activity of chemical disinfectants and antiseptics used in food, industrial, domestic, and institutional areas-Test method and requirements. […] The growth media TSB (Tryptic Soy Broth) was separately inoculated with a culture loop of the microorganisms. The cultures were incubated at 37° C. for 24 hours. Bovine Serum Albumin with a final concentration of 3 g/L Polysorbate 80 with a concentration of 30 g/L The used method was Dilution-neutralization method. 1 mL of interfering substance was pipetted into a tube and 1 mL of the test suspension was added and mixed. […] The solution was incubated at 20° C. for 5 min. and 60 min. respectively. […] After 5 min. of neutralization time 100 μL of the mixture was added to a petri-dish containing TSA media. Another 100 μL was added to a tube containing 900 μL 0.9% NaCl and a serial dilution to 10^-5 was made. The mixtures added to the agar plates were evenly distributed with a Drigalski-spatula. The agar plates were incubated at 37° C. for 24 hours. After incubation, the number of surviving bacteria (CFU) was counted. The test was performed in 3 replicates.

[2] = system: Escherichia coli, ATCC 10536; experiment: as above
Experimental: as §1

[3] = system: Staphylococcus aureus, ATCC 6538; experiment: as above; settings: all tested contact times (5, 60 min) and concentrations (1.5%, 3%, 6%)
Experimental: as §1

[4] = PVB dispersion FX2, 32° C., with 0.5% peroxide
[5] = PVB dispersion FX2, 32° C., without peroxide
[6] = PVB dispersion FX6, 32° C., with 0.5% peroxide
[7] = PVB dispersion FX6, 32° C., without peroxide
[8] = PVB dispersion SX, 32° C., with 0.5% peroxide
[9] = PVB dispersion SX, 32° C., without peroxide
[10] = PVB dispersion WX2s, 32° C., with 0.5% peroxide
[11] = PVB dispersion WX2s, 32° C., without peroxide
[12] = PVB dispersion WX, 32° C., with 0.5% peroxide
[13] = PVB dispersion WX, 32° C., without peroxide

Structure (SMILES): CCCCN(CCO)CCO [NBDA, N-butyldiethanolamine]
- bacteria count 1 mo after adding NBDA (bacteria; [4]): 22
- bacteria count 1 wk after adding NBDA (bacteria; [4]): 9.9
- bacteria count 3 mo after adding NBDA (bacteria; [4]): 3
- bacteria count 1 d after adding NBDA (bacteria; [4]): 17.6
- bacteria count 1 mo after adding NBDA (bacteria; [5]): 77.1
- bacteria count 1 wk after adding NBDA (bacteria; [5]): 1.8
- bacteria count 3 mo after adding NBDA (bacteria; [5]): 64
- bacteria count 6 mo after adding NBDA (bacteria; [5]): 15.5
- bacteria count 1 d after adding NBDA (bacteria; [5]): 7.7
- bacteria count 1 mo after adding NBDA (bacteria; [6]): 0.93
- bacteria count 1 wk after adding NBDA (bacteria; [6]): 239
- bacteria count 3 mo after adding NBDA (bacteria; [6]): 28
- bacteria count 6 mo after adding NBDA (bacteria; [6]): 62
- bacteria count 9 mo after adding NBDA (bacteria; [6]): 15.4
- bacteria count 1 d after adding NBDA (bacteria; [6]): 31.7
- bacteria count 1 mo after adding NBDA (bacteria; [7]): 0.93
- bacteria count 1 wk after adding NBDA (bacteria; [7]): 25
- bacteria count 3 mo after adding NBDA (bacteria; [7]): 1.4
- bacteria count 6 mo after adding NBDA (bacteria; [7]): 1.1
- bacteria count 9 mo after adding NBDA (bacteria; [7]): 1.51
- bacteria count 1 d after adding NBDA (bacteria; [7]): 48.5
- bacteria count 1 mo after adding NBDA (bacteria; [8]): 24.2
- bacteria count 1 wk after adding NBDA (bacteria; [8]): 48.1
- bacteria count 3 mo after adding NBDA (bacteria; [8]): 54.6
- bacteria count 6 mo after adding NBDA (bacteria; [8]): 53
- bacteria count 9 mo after adding NBDA (bacteria; [8]): 21.9
- bacteria count 1 d after adding NBDA (bacteria; [8]): 24.3
- bacteria count 1 mo after adding NBDA (bacteria; [9]): 19.5
- bacteria count 1 wk after adding NBDA (bacteria; [9]): 42.1
- bacteria count 3 mo after adding NBDA (bacteria; [9]): 26
- bacteria count 6 mo after adding NBDA (bacteria; [9]): 9
- bacteria count 9 mo after adding NBDA (bacteria; [9]): 15.7
- bacteria count 1 d after adding NBDA (bacteria; [9]): 17.2
- bacteria count 1 mo after adding NBDA (bacteria; [10]): 74.9
- bacteria count 1 wk after adding NBDA (bacteria; [10]): 4.5
- bacteria count 3 mo after adding NBDA (bacteria; [10]): 28.9
- bacteria count 6 mo after adding NBDA (bacteria; [10]): 7.8
- bacteria count 1 d after adding NBDA (bacteria; [10]): 29.7
- bacteria count 1 mo after adding NBDA (bacteria; [11]): 25.2
- bacteria count 1 wk after adding NBDA (bacteria; [11]): 7.2
- bacteria count 3 mo after adding NBDA (bacteria; [11]): 13
- bacteria count 6 mo after adding NBDA (bacteria; [11]): 39.9
- bacteria count 1 d after adding NBDA (bacteria; [11]): 17.6
- bacteria count 1 mo after adding NBDA (bacteria; [12]): 83.4
- bacteria count 1 wk after adding NBDA (bacteria; [12]): 79
- bacteria count 3 mo after adding NBDA (bacteria; [12]): 13.3
- bacteria count 6 mo after adding NBDA (bacteria; [12]): 63.8
- bacteria count 9 mo after adding NBDA (bacteria; [12]): 35
- bacteria count 1 d after adding NBDA (bacteria; [12]): 4.2
- bacteria count 1 mo after adding NBDA (bacteria; [13]): 31.6
- bacteria count 1 wk after adding NBDA (bacteria; [13]): 180
- bacteria count 3 mo after adding NBDA (bacteria; [13]): 7.4
- bacteria count 6 mo after adding NBDA (bacteria; [13]): 11.2
- bacteria count 9 mo after adding NBDA (bacteria; [13]): 57.7
- bacteria count 1 d after adding NBDA (bacteria; [13]): 110
- bacteria count after 4 mo after addition of NBDA (bacteria; PVB dispersion FX1, 32° C.): 10.1
- bacteria count after 4 wk after addition of NBDA (bacteria; PVB dispersion FX1, 32° C.): 3.7
- bacteria count after 6 mo after addition of NBDA (bacteria; PVB dispersion FX1, 32° C.): 1
- bacteria count after 8 wk after addition of NBDA (bacteria; PVB dispersion FX1, 32° C.): 18.5
- bacteria count after 9 mo after addition of NBDA (bacteria; PVB dispersion FX1, 32° C.): 34
- bacteria count after 12 mo after addition of NBDA (bacteria; PVB dispersion FX1, 32° C.): 2.3
- bacteria count after 4 mo after addition of NBDA (bacteria; PVB dispersion FX2, 32° C.): 13.1
- bacteria count after 4 wk after addition of NBDA (bacteria; PVB dispersion FX2, 32° C.): 12.4
- bacteria count after 6 mo after addition of NBDA (bacteria; PVB dispersion FX2, 32° C.): 6.9
- bacteria count after 8 wk after addition of NBDA (bacteria; PVB dispersion FX2, 32° C.): 4.6
- bacteria count after 9 mo after addition of NBDA (bacteria; PVB dispersion FX2, 32° C.): 67.9
- bacteria count after 12 mo after addition of NBDA (bacteria; PVB dispersion FX2, 32° C.): 15.6
- bacteria count after 4 mo after addition of NBDA (bacteria; PVB dispersion FX6, 32° C.): 9.1
- bacteria count after 4 wk after addition of NBDA (bacteria; PVB dispersion FX6, 32° C.): 64.3
- bacteria count after 6 mo after addition of NBDA (bacteria; PVB dispersion FX6, 32° C.): 52.1
- bacteria count after 8 wk after addition of NBDA (bacteria; PVB dispersion FX6, 32° C.): 12.1
- bacteria count after 9 mo after addition of NBDA (bacteria; PVB dispersion FX6, 32° C.): 7.3
- bacteria count after 12 mo after addition of NBDA (bacteria; PVB dispersion FX6, 32° C.): 367
- bacteria count after 4 mo after addition of NBDA (bacteria; PVB dispersion WX1, 32° C.): 8.1
- bacteria count after 4 wk after addition of NBDA (bacteria; PVB dispersion WX1, 32° C.): 38.4
- bacteria count after 6 mo after addition of NBDA (bacteria; PVB dispersion WX1, 32° C.): 5
- bacteria count after 8 wk after addition of NBDA (bacteria; PVB dispersion WX1, 32° C.): 4.6
- bacteria count after 9 mo after addition of NBDA (bacteria; PVB dispersion WX1, 32° C.): 8.9
- bacteria count after 12 mo after addition of NBDA (bacteria; PVB dispersion WX1, 32° C.): 16.8
- bacteria count after 4 mo after addition of NBDA (bacteria; PVB dispersion WX25, 32° C.): 68
- bacteria count after 4 wk after addition of NBDA (bacteria; PVB dispersion WX25, 32° C.): 94
- bacteria count after 6 mo after addition of NBDA (bacteria; PVB dispersion WX25, 32° C.): 170
- bacteria count after 8 wk after addition of NBDA (bacteria; PVB dispersion WX25, 32° C.): 82
- bacteria count after 9 mo after addition of NBDA (bacteria; PVB dispersion WX25, 32° C.): 238
- bacteria count after 12 mo after addition of NBDA (bacteria; PVB dispersion WX25, 32° C.): 181
- CFU/plate ([1]; 1.5%, contact time 5 min): >165 CFU/plate
- log10 reduction ([1]; 1.5%, contact time 5 min): <5 log10
- CFU/plate ([1]; 1.5%, contact time 60 min): >165 CFU/plate
- log10 reduction ([1]; 1.5%, contact time 60 min): <5 log10
- CFU/plate ([1]; 3.0%, contact time 5 min): >165 CFU/plate
- log10 reduction ([1]; 3.0%, contact time 5 min): <5 log10
- CFU/plate ([1]; 3.0%, contact time 60 min): >165 CFU/plate
- log10 reduction ([1]; 3.0%, contact time 60 min): <5 log10
- CFU/plate ([1]; 6.0%, contact time 5 min): >165 CFU/plate
- log10 reduction ([1]; 6.0%, contact time 5 min): <5 log10
- CFU/plate ([1]; 6.0%, contact time 60 min): 25 CFU/plate and 22 CFU/plate and 35 CFU/plate
- CFU/plate ([2]; 1.5%, contact time 5 min): >165 CFU/plate
- log10 reduction ([2]; 1.5%, contact time 5 min): <5 log10
- CFU/plate ([2]; 1.5%, contact time 60 min): >165 CFU/plate
- log10 reduction ([2]; 1.5%, contact time 60 min): <5 log10
- CFU/plate ([2]; 3.0%, contact time 5 min): >165 CFU/plate
- log10 reduction ([2]; 3.0%, contact time 5 min): <5 log10
- CFU/plate ([2]; 3.0%, contact time 60 min): >165 CFU/plate
- log10 reduction ([2]; 3.0%, contact time 60 min): <5 log10
- CFU/plate ([2]; 6.0%, contact time 5 min): >165 CFU/plate
- log10 reduction ([2]; 6.0%, contact time 5 min): <5 log10
- CFU/plate ([2]; 6.0%, contact time 60 min): 25 CFU/plate and 29 CFU/plate and 30 CFU/plate
- log changes of CFU [3]: lower than 5 log units
